Assay results: US12414958B2, “Medicament and use thereof for treating bacterial infections involving biofilm” (Debiopharm International S.A., priority 2019, dated 2025)
Values joined by “and” are separate entries in the source; they are usually repeats but may differ in a detail not shown here. Identical values can stand only once.

Tests used:
ATCC 43300 MRSA strain = assay: Induction of resistance studies, ex vivo bacterial exposure to 4×MIC (Example 1); type: cell-based, Staphylococcus aureus; details: ex vivo exposure to 4×MIC; single and combination therapy; 24h or 72h biofilm
Protocol: Two experimental settings were used in this study to evaluate the treatment efficacies against early (24h) and/or mature (72h) MRSA catheter formed biofilms. Briefly, mice were anaesthetised by an IP injection of about 120 μl a mix of ketamine (50 mg/kg) and xylazine (10 mg/kg) (4 mL ketamine+2 mL xylazine+10 mL saline). Flank on the right side was shaved and then disinfected by 3 consecutive applications of betadine. A cutaneous and then subcutaneous (SC) incisions of 0.2 cm were made under sterile conditions and a 1 cm segment of polyurethane catheter (Ref. No. ES-04730 Arrow international) cut into 2 longitudinal fragments was inserted SC (into the incision and then pushed further under the skin, about 2 cm away from the incision). The inoculation was done simultaneously by placing 50 μl of the bacterial culture onto the catheter (10^6 CFU of ATCC 43300 MRSA strain). The incision was stitched up and disinfected. The day of the infection was referred to as Day0 (D0). To ensure that the study was conducted in sterile conditions from the start to the end of the experiment, non-infected mice (sentinel group) were included. […] In both 24 h and 72h biofilm settings, two groups of infected non-treated animals (Vehicle controls) were evaluated for bacterial counts: at baseline (24h or D1 [for 24-h biofilm] and 72h or D3 [for 72-h biofilm] post infection, i.e. time points corresponding to treatments initiations) and at the termination of treatment duration (D6 [for 24-h biofilm] and D8 [for 72-h biofilm] post infection). Post treatment CFUs were counted on D6 or D8 and results were expressed as Log10 CFU/g of catheter (Mean±SEM). The limit of detection was determined as being 1 Log10 CFU/g of catheter. Changes of CFU/g of catheter (Δ Log10) from the baseline (D1 or D3 for 24-h and 72-h biofilm, respectively) and cure rates (corresponding to the percentage of mice without catheter-associated bacteria within a given treatment group) were also calculated. In vivo induction of antibiotic-resistant bacteria was analysed for all tested antibiotics.

[1] = tested on: S. aureus ATCC 43300 (MRSA); assay: Mouse tissue cage model of MRSA infection, 11-day treatment at lower dosage (Example 3); type: in vivo, Staphylococcus aureus; details: for Cure rate (%) / adherent bacteria reduction from baseline (mean±SD): 24-h biofilm; for Cure rate (%) / adherent bacteria reduction from baseline (mean±SD) / day on which bactericidal effect (mean reduction of bacterial load by ≥3 Log10) on planktonic bacteria was exerted / Planktonic day 3 Δlog from baseline (individual animal) / Planktonic day 6 Δlog from baseline (individual animal) / Planktonic day 9 Δlog from baseline (individual animal) / Planktonic day 11 Δlog from baseline (individual animal): 11-day treatment; for Cure rate (%): cages without growth / total cages; for adherent bacteria reduction from baseline (mean±SD): n=6, given as positive reduction; for Adherent Mean / Adherent Δlog from baseline (individual animal): medium after sonication of explanted tissue cages, day 14 vs day 1; for Adherent Mean: group mean; for day on which bactericidal effect (mean reduction of bacterial load by ≥3 Log10) on planktonic bacteria was exerted: planktonic bacteria in tissue cage fluid; for Planktonic day 3 Δlog from baseline (individual animal) / Planktonic day 6 Δlog from baseline (individual animal) / Planktonic day 9 Δlog from baseline (individual animal) / Planktonic day 11 Δlog from baseline (individual animal) / Planktonic day 14 Δlog from baseline (individual animal) / Planktonic day 3 Mean / Planktonic day 6 Mean / Planktonic day 9 Mean / Planktonic day 11 Mean / Planktonic day 14 Mean: tissue cage fluid; for Planktonic day 3 Δlog from baseline (individual animal) / Planktonic day 6 Δlog from baseline (individual animal) / Planktonic day 9 Δlog from baseline (individual animal) / Planktonic day 11 Δlog from baseline (individual animal): baseline day 1; for Planktonic day 14 Δlog from baseline (individual animal): 3 days after end of 11-day treatment; for Planktonic day 3 Mean / Planktonic day 6 Mean / Planktonic day 9 Mean / Planktonic day 11 Mean / Planktonic day 14 Mean: group mean Δlog from baseline
Source text: The purpose of this study was to evaluate the efficacy of Debio 1450 BES alone and in combination with Daptomycin (DAP) in the mouse tissue cage model of implant-associated infections caused by methicillin resistant Staphylococcus (S.) aureus (MRSA) at lower dosage and longer treatment duration than used in the previous study (Example 2). The efficacy against 24-h biofilm of S. aureus ATCC 43300 (MRSA) was investigated. Employing a small initial inoculum (ca. 300 CFU/cage) together with a 24-h biofilm allowed to simulate clinical settings of an acute implant infection and/or surgical debridement.
The Debio 1450 BES dose of 20 mg/kg BID reflects the most current HED of 240 mg BID obtained in the recent PK studies (50 mg/kg BID was used in Example 2 based on the previous PK analysis). […] The treatment duration of 11 days was selected to compensate lowering of the dose of Debio 1450 BES (5.5-day treatment was used in Example 2) and is in line with the prolonged antibiotic therapy applied in patients with prosthetic joint infections.
The same mouse tissue cage model was employed as described in Example 2 above. The animals received antibiotic treatment i.p. on day 1 post-infection through day 11. One group received only 5% glucose and served as infected, untreated control group (vehicle). […] Debio 1450 BES and vehicle were administered bid, and DAP was administered qdam. In the present study we investigated the efficacy of lower dosage in a prolonged treatment duration.
Five to 6 days before infection, TCF was aspirated to ascertain the sterility of implanted cages by TCF plating on blood agar plates. TCF was aspirated and plated on day 1 (before treatment) to confirm the establishment of infection. In addition, the number of bacteria in TCF was determined on day 3 (before the first injection that day), on day 6, day 9 and on day 11 (before last treatment), and on day 14 (before explantation of the cages) to evaluate the treatment efficacy against planktonic bacteria. The mouse number and bacterial count for the given cage is reported to analyse the time course of antibacterial activity of the tested drugs. The efficacy against biofilm-embedded bacteria is assessed qualitatively and quantitatively following aseptic explantation of the tissue cages 3 days after the completion of treatment. The 3 days of resting period helped to avoid the antibiotic carryover effect. Upon explantation, cages were washed twice with phosphate buffered saline (PBS) (Lot #5060914) and immediately transferred into 5 mL 0.9% NaCl (Lot #L171095). Following 30 s vortexing, sonication (3 min at 130 W), and an additional 30 s vortexing step the numbers of bacteria dispersed from biofilm was determined by plating. The sonicated cages were washed once with PBS, transferred into 5 mL TSB (Lot #0286463), and incubated for 48 h at 37° C., with an additional vortexing step after 24 h of incubation. After the incubation, tubes were vortexed again and bacterial regrowth was assessed visually. In addition, 100 μL of each culture was plated on blood agar plates to ascertain the regrowth. A positive culture is defined as a treatment failure. The efficacy of treatment against adherent bacteria is expressed as the cure rate (in percent), defined as the number of cages without growth divided by the total number of cages in the individual treatment group. In addition, single colonies from the re-growth plates were used to achieve the 0.5 McFarland. 100 μl of each 0.5 McFarland culture was plated on MHA plates containing the antibiotics corresponding to the treatment used (note: bacteria from mice treated with Debio 1450 will be plated on plates containing Debio 1452).

MSSA ATCC 29213 = assay: Mouse tissue cage model of staphylococcal biofilm infection, MSSA (Example 4); type: in vivo, Staphylococcus aureus; details: 24-h biofilm MSSA ATCC 29213; 11-d treatment; cages explanted day 14
Protocol: After the incubation, tubes were vortexed again and bacterial regrowth was assessed visually. […] The efficacy of treatment against adherent bacteria is expressed as the cure rate (in percent), defined as the number of cages without growth divided by the total number of cages in the individual treatment group.

| SMILES | Cure rate (%) [1] | adherent bacteria reduction from baseline (mean±SD) [1] | Adherent Mean [1] | day on which bactericidal effect (mean reduction of bacterial load by ≥3 Log10) on planktonic bacteria was exerted [1] | Planktonic day 3 Mean [1] | Planktonic day 6 Mean [1] | Planktonic day 9 Mean [1] | Planktonic day 11 Mean [1] | Planktonic day 14 Mean [1] | Cure rate (%) (MSSA ATCC 29213) | also measured |
| --- | --- | --- | --- | --- | --- | --- | --- | --- | --- | --- | --- |
| CCCCCCCCCC(=O)N[C@@H](Cc1c[nH]c2ccccc12)C(=O)N[C@H](CC(N)=O)C(=O)N[C@@H](CC(=O)O)C(=O)N[C@@H]1C(=O)NCC(=O)N[C@@H](CCCN)C(=O)N[C@@H](CC(=O)O)C(=O)N[C@H](C)C(=O)N[C@@H](CC(=O)O)C(=O)NCC(=O)N[C@H](CO)C(=O)N[C@@H]([C@H](C)CC(=O)O)C(=O)N[C@@H](CC(=O)c2ccccc2N)C(=O)O[C@@H]1C [Daptomycin] | 50% | 3.15±2.74 log 10 CFU/mL | −3 log 10 CFU/mL | 6 day | −3 Log10 | −3.33 Log10 | −3.9 Log10 | −3.73 Log10 | −2 Log10 |  | emergence of resistant mutants (ATCC 43300 MRSA strain): no emergence of resistant mutants; Adherent Δlog from baseline (individual animal) ([1]; listed as DAP): −4.2 log 10 CFU/mL and −0.3 log 10 CFU/mL and 0.24 log 10 CFU/mL and −6 log 10 CFU/mL (2×) and −2.5 log 10 CFU/mL; Planktonic day 3 Δlog from baseline (individual animal) ([1]; listed as DAP): −2.56 Log10 and −2.18 Log10 and −3.12 Log10 and −2.06 Log10 and −3.41 Log10 and −3.62 Log10; Planktonic day 6 Δlog from baseline (individual animal) ([1]; listed as DAP): −2.7 Log10 and −3.5 Log10 (2×) and −3.4 Log10 (2×) and −3.6 Log10; Planktonic day 9 Δlog from baseline (individual animal) ([1]; listed as DAP): −4.6 Log10 and −5.5 Log10 and −2.7 Log10 and −3.4 Log10 and −3.6 Log10 (2×); Planktonic day 11 Δlog from baseline (individual animal) ([1]; listed as DAP): −4.6 Log10 and −2.9 Log10 and −2.70 Log10 and −3.4 Log10 and −5.2 Log10 and −3.6 Log10; Planktonic day 14 Δlog from baseline (individual animal) ([1]; listed as DAP): −4.6 Log10 and −1.1 Log10 and −1.5 Log10 and −3.4 Log10 and −0.6 Log10 and −3.6 Log10 |
| Cc1c(CN(C)C(=O)/C=C/c2cnc3c(c2)CCC(=O)N3COP(=O)(O)O)oc2ccccc12 [Debio 1450, {6-[(1E)-3-{methyl [(3-methyl-1-benzofuran-2-yl)methyl]amino}-3-oxoprop-1-en-1-yl]-2-oxo-3,4-dihydro-1,8-naphthyridin-1 (2H)-yl} methyl dihydrogen phosphate] | 83% | 4.35±2.5 log 10 CFU/mL | −4 log 10 CFU/mL | 6 day | −3 Log10 | −3.50 Log10 | −4.10 Log10 | −4.10 Log10 | −3 Log10 | 14.3% | Adherent Δlog from baseline (individual animal) [1]: −4.2 log 10 CFU/mL (2×) and 0.43 log 10 CFU/mL and −6 log 10 CFU/mL (3×); Planktonic day 3 Δlog from baseline (individual animal) [1]: −1.46 Log10 and −3.68 Log10 and −2.22 Log10 and −3.33 Log10 and −3.03 Log10 and −2.37 Log10; Planktonic day 6 Δlog from baseline (individual animal) [1]: −3.1 Log10 and −3.7 Log10 (2×) and −4.2 Log10 and −3.3 Log10 and −3 Log10; Planktonic day 9 Δlog from baseline (individual animal) [1]: −3.1 Log10 and −3.7 Log10 and −6.2 Log10 and −3.3 Log10 and −3 Log10 and −5.3 Log10; Planktonic day 11 Δlog from baseline (individual animal) [1]: −3.1 Log10 and −3.7 Log10 and −6.2 Log10 and −3.3 Log10 and −3 Log10 and −5.3 Log10; Planktonic day 14 Δlog from baseline (individual animal) [1]: −3.1 Log10 and −3.7 Log10 and −0.2 Log10 and −3.3 Log10 and −3 Log10 and −5.3 Log10 |
| CO[C@H]1/C=C/O[C@@]2(C)Oc3c(C)c(O)c4c(O)c(c(/C=N/N5CCN(C)CC5)c(O)c4c3C2=O)NC(=O)/C(C)=C\C=C\[C@H](C)[C@H](O)[C@@H](C)[C@@H](O)[C@@H](C)[C@H](OC(C)=O)[C@@H]1C [Rifampicin] |  |  |  |  |  |  |  |  |  | 100% |  |
